Assay results from patent publication US20110105397A1, “METHOD FOR TREATING HEART FAILURE WITH STRESSCOPIN-LIKE PEPTIDES” (priority 2009, published 2011).

Experiments:
[1] = in vivo; settings: mongrel, dog, iv, [SEQ ID NO: 1] plasma concentration
Description: A sandwich immunoassay was developed using an affinity purified goat polyclonal antibody, specific to h-SCP that was pre-coated onto a microplate with integrated electrodes. h-SCP molecules present in the sample will bind to the capture polyclonal antibody coated on the plate. After washing away any unbound substances, a sulfo-tagged mouse monoclonal anti-h-SCP antibody was added. This conjugated antibody will bind to the h-SCP molecules captured on the microplate and the quantity of analyte was determined by electrochemiluminescence. The amount of signal generated is directly proportional to the h-SCP concentration in the sample or standard. The standard curve range is 3.125-1600 pg/mL with a quantifiable range from 10-800 pg/mL. A sample volume of 25 μL (in duplicate) is required for this assay. This immunoassay is specific for human and dog stresscopin and human urocortin III (h-UCN3). […] After completion of the analysis, based on a comparison of reference standards between the ELISA and HPLC method, a correction factor of 1.57 was applied to all bioanalytical data.
The effects of h-SCP (SEQ ID NO:1) on cardiovascular function were also assessed in anaesthetized dogs with advanced, irreversible heart failure of ischemic etiology (Sabbah et al., 1991, Am. J. Physiol., vol. 260, pp. H1379-H1384; Sabbah et al., 1994, Circulation, vol. 98, pp. 2852-2859; Chandler et al., 2002, Circ. Res., vol. 91, pp. 278-280). Progressive, advanced heart failure was produced in mongrel dogs by multiple sequential intracoronary microembolization with polystyrene latex microspheres. Dose infusions of 2.2, 4.3, and 7.3 ng/kg/min were administered intravenously over 60 minutes just following or just prior to hemodynamic, angiographic, echocardiographic, and Doppler measurements using conventional hemodynamic, angiographic, echocardiographic, and radiographic methods. The h-SCP polypeptide (SEQ ID NO:1) produced dose- (infusion-) dependent increases in LVEF and SV and decreases in left ventricular end diastolic pressure (LVEDP), left ventricular pressure during isovolumic relaxation (LV-dP/dt), systemic vascular resistance (SVR), and left ventricular end-systolic volume (LVESV) that correlated with plasma concentration. No significant change in heart rate, peak systolic aortic blood pressure, LV+dP/dt, mean pulmonary artery pressure, mean pulmonary artery wedge pressure, right atrial pressure, or myocardial oxygen consumption were recorded following any of the 1 hour intravenous infusions (Table 18 and FIGS. 12 A & B). The improvement in LV systolic and diastolic function was not associated with the development of de novo ventricular arrhythmias.
In order to determine the threshold effective dose-infusion in dogs with advanced heart failure, a further study was performed at lower dose infusions. In addition, the opportunity was taken to explore whether the increase in LVEF produced by higher dose-infusions of 4.3 ng/kg/min would remain stable over a longer infusion period, i.e. 120 minutes.

[2] = tested on: isolated rat aortic rings; test: Vascular smooth muscle relaxation, isolated rat aortic rings pre-contracted with phenylephrine
Text: The ability of h-SCP (SEQ ID NO:1) to relax vascular smooth muscle was examined in isolated, rat aortic rings pre-contracted with phenylephrine (PE) (FIG. 8). […] The responses caused by h-SCP (SEQ ID NO:1) were inhibited by anti-sauvagine-30 (SEQ ID NO:118).

[3] = tested on: anaesthetized mongrel dogs; test: Hemodynamic, angiographic, echocardiographic profile in anaesthetized healthy dogs, IV bolus; format: in vivo, dog
Description: The effects of h-SCP (SEQ ID NO: 1) on cardiovascular function were also assessed in anaesthetized mongrel dogs following intravenous bolus and 30-minute infusions. Hemodynamic and left ventricular systolic and diastolic function was evaluated using conventional hemodynamic, angiographic, echocardiographic, and radiographic methods with the results summarized in Table 16.

[4] = biological target: m-CRHR2b (Mus musculus, UniProt Q60748); settings: m-CRHR2b transfected CHO-K1 cells (Lewis et al., 2001); cited from earlier work
Sequence of m-CRHR2b (Q60748 1-431 isoform Q60748-2): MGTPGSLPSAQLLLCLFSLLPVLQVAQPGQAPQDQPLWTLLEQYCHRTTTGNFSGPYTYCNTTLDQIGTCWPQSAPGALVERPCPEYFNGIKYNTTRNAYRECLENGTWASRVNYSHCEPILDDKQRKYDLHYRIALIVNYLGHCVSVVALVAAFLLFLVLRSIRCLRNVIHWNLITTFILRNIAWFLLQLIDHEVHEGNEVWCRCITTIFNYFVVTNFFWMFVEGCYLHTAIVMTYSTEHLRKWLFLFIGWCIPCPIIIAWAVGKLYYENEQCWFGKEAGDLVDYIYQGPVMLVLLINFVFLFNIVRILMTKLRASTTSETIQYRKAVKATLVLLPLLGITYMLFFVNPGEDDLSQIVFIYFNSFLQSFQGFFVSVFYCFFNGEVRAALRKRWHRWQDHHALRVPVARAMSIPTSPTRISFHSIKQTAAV

In the case of “H-TKFTLSLDVPTNIMNLLFNIAKAKNLRAQAAANAHLMAQI-NH2 [SEQ ID NO: 1, TKFTLSLDVPTNIMNLLFNIAKAKNLRAQAAANAHLMAQI-NH2]”, the level at 1 h ([1]; 0.22 ng/kg/min) is reported as 0.0412 ± 0.0149 ng/mL, the level at time molar at 1 h ([1]; 0.22 ng/kg/min) is reported as 0.0094 ± 0.0034 nM and the level at 1 h ([1]; 0.43 ng/kg/min) is reported as 0.0372 ± 0.0139 ng/mL. The level at time molar at 1 h ([1]; 0.43 ng/kg/min) was 0.0085 ± 0.0032 nM, the level at 1 h ([1]; 2.2 ng/kg/min) was 0.141 ± 0.0182 ng/mL and the level at time molar at 1 h ([1]; 2.2 ng/kg/min) was 0.0324 ± 0.0042 nM. The level at 1 h ([1]; 4.3 ng/kg/min) was 0.178 ± 0.0211 ng/mL, the level at 2 h ([1]; 4.3 ng/kg/min) was 0.249 ± 0.0479 ng/mL and the level at time molar at 1 h ([1]; 4.3 ng/kg/min) was 0.0408 ± 0.0048 nM. For the same molecule, the level at time molar at 2 h ([1]; 4.3 ng/kg/min) was 0.057 ± 0.011 nM, the level at 1 h ([1]; 7.3 ng/kg/min) was 0.279 ± 0.0296 ng/mL and the level at time molar at 1 h ([1]; 7.3 ng/kg/min) was 0.0639 ± 0.0068 nM. The “fold less potent than h-UCN2” value [2] was 10 fold, the pA50 of relaxation ([2]; rat aortic rings pre-contracted with phenylephrine) was 6.05±0.12 and the “CO (Cardiac output)” value ([3]; IV bolus 0.13 μg/kg) was 2.19 L/min. The “HR (Heart rate)” value ([3]; IV bolus 0.13 μg/kg) was 73 beats/min, the “LV dP/dt (LV contractility)” value ([3]; IV bolus 0.13 μg/kg) was 1546 mmHg/sec and the “LVEDA (LV end diastolic area)” value ([3]; IV bolus 0.13 μg/kg) was 12.9 cm^2. For the same molecule, the “LVEDV (LV end diastolic volume)” value ([3]; IV bolus 0.13 μg/kg) was 55 mL, the “LVEF (LV ejection fraction)” value ([3]; IV bolus 0.13 μg/kg) was 55% and the “LVESA (LV end systolic area)” value ([3]; IV bolus 0.13 μg/kg) was 6.9 cm^2. For the same molecule, the “LVESV (LV end systolic volume)” value ([3]; IV bolus 0.13 μg/kg) was 25 mL, the “LVFAS (LV fractional area of shortening)” value ([3]; IV bolus 0.13 μg/kg) was 46% and the “PSAP (Peak systolic aortic pressure)” value ([3]; IV bolus 0.13 μg/kg) was 92 mmHg. The “SV (Stroke volume)” value ([3]; IV bolus 0.13 μg/kg) was 30 mL, the “increase in heart rate (largest change)” value ([3]; IV bolus 0.13 μg/kg to 13.1 μg/kg) was 45% and the “CO (Cardiac output)” value ([3]; IV bolus 1.3 μg/kg) was 2.56 L/min. The “HR (Heart rate)” value ([3]; IV bolus 1.3 μg/kg) was 85 beats/min, the “LV dP/dt (LV contractility)” value ([3]; IV bolus 1.3 μg/kg) was 1606 mmHg/sec and the “LVEDA (LV end diastolic area)” value ([3]; IV bolus 1.3 μg/kg) was 12.7 cm^2. The “LVEDV (LV end diastolic volume)” value ([3]; IV bolus 1.3 μg/kg) was 54 mL, the “LVEF (LV ejection fraction)” value ([3]; IV bolus 1.3 μg/kg) was 57% and the “LVESA (LV end systolic area)” value ([3]; IV bolus 1.3 μg/kg) was 6.5 cm^2. For the same molecule, the “LVESV (LV end systolic volume)” value ([3]; IV bolus 1.3 μg/kg) was 23 mL, the “LVFAS (LV fractional area of shortening)” value ([3]; IV bolus 1.3 μg/kg) was 49% and the “PSAP (Peak systolic aortic pressure)” value ([3]; IV bolus 1.3 μg/kg) was 91 mmHg. The “SV (Stroke volume)” value ([3]; IV bolus 1.3 μg/kg) was 30 mL, the “CO (Cardiac output)” value ([3]; IV bolus 2.6 μg/kg) was 2.72 L/min and the “HR (Heart rate)” value ([3]; IV bolus 2.6 μg/kg) was 92 beats/min. For the same molecule, the “LV dP/dt (LV contractility)” value ([3]; IV bolus 2.6 μg/kg) was 1675 mmHg/sec, the “LVEDA (LV end diastolic area)” value ([3]; IV bolus 2.6 μg/kg) was 12.5 cm^2 and the “LVEDV (LV end diastolic volume)” value ([3]; IV bolus 2.6 μg/kg) was 52 mL. The “LVEF (LV ejection fraction)” value ([3]; IV bolus 2.6 μg/kg) was 57%, the “LVESA (LV end systolic area)” value ([3]; IV bolus 2.6 μg/kg) was 6.2 cm^2 and the “LVESV (LV end systolic volume)” value ([3]; IV bolus 2.6 μg/kg) was 22 mL. The “LVFAS (LV fractional area of shortening)” value ([3]; IV bolus 2.6 μg/kg) was 50%, the “PSAP (Peak systolic aortic pressure)” value ([3]; IV bolus 2.6 μg/kg) was 90 mmHg and the “SV (Stroke volume)” value ([3]; IV bolus 2.6 μg/kg) was 30 mL. For the same molecule, the “CO (Cardiac output)” value ([3]; IV bolus 4.4 μg/kg) was 2.80 L/min, the “HR (Heart rate)” value ([3]; IV bolus 4.4 μg/kg) was 94 beats/min and the “LV dP/dt (LV contractility)” value ([3]; IV bolus 4.4 μg/kg) was 1682 mmHg/sec. The “LVEDA (LV end diastolic area)” value ([3]; IV bolus 4.4 μg/kg) was 12.4 cm^2, the “LVEDV (LV end diastolic volume)” value ([3]; IV bolus 4.4 μg/kg) was 51 mL and the “LVEF (LV ejection fraction)” value ([3]; IV bolus 4.4 μg/kg) was 58%. For the same molecule, the “LVESA (LV end systolic area)” value ([3]; IV bolus 4.4 μg/kg) was 6.0 cm^2, the “LVESV (LV end systolic volume)” value ([3]; IV bolus 4.4 μg/kg) was 22 mL and the “LVFAS (LV fractional area of shortening)” value ([3]; IV bolus 4.4 μg/kg) was 52%. For the same molecule, the “PSAP (Peak systolic aortic pressure)” value ([3]; IV bolus 4.4 μg/kg) was 90 mmHg, the “SV (Stroke volume)” value ([3]; IV bolus 4.4 μg/kg) was 30 mL and the “CO (Cardiac output)” value ([3]; IV bolus 13.1 μg/kg) was 2.86 L/min. For the same molecule, the “HR (Heart rate)” value ([3]; IV bolus 13.1 μg/kg) was 107 beats/min, the “LV dP/dt (LV contractility)” value ([3]; IV bolus 13.1 μg/kg) was 1760 mmHg/sec and the “LVEDA (LV end diastolic area)” value ([3]; IV bolus 13.1 μg/kg) was 11.4 cm^2. The “LVEDV (LV end diastolic volume)” value ([3]; IV bolus 13.1 μg/kg) was 46 mL, the “LVEF (LV ejection fraction)” value ([3]; IV bolus 13.1 μg/kg) was 60% and the “LVESA (LV end systolic area)” value ([3]; IV bolus 13.1 μg/kg) was 5.2 cm^2. For the same molecule, the “LVESV (LV end systolic volume)” value ([3]; IV bolus 13.1 μg/kg) was 18 mL, the “LVFAS (LV fractional area of shortening)” value ([3]; IV bolus 13.1 μg/kg) was 53% and the “PSAP (Peak systolic aortic pressure)” value ([3]; IV bolus 13.1 μg/kg) was 88 mmHg. The “SV (Stroke volume)” value ([3]; IV bolus 13.1 μg/kg) was 28 mL.

For `CC[C@H](C)[C@H](NC(=O)[C@H](CO)NC(=O)[C@H](CC(C)C)NC(=O)[C@@H]1CCCN1C(=O)[C@@H]1CCCN1C(=O)[C@H](CC(=O)O)NC(=O)[C@@H](N)CC(=O)O)C(=O)N[C@@H](CC(=O)O)C(=O)N[C@@H](CC(C)C)C(=O)N[C@H](C(=O)N[C@@H](Cc1ccccc1)C(=O)N[C@@H](Cc1c[nH]cn1)C(=O)N[C@@H](CC(C)C)C(=O)N[C@@H](CC(C)C)C(=O)N[C@@H](CCCNC(=N)N)C(=O)N[C@H](C(=O)N[C@@H](CC(C)C)C(=O)N[C@@H](CC(C)C)C(=O)N[C@@H](CCC(=O)O)C(=O)N[C@@H](CC(C)C)C(=O)N[C@@H](C)C(=O)N[C@@H](CCCNC(=N)N)C(=O)N[C@H](C(=O)N[C@@H](CCC(N)=O)C(=O)N[C@@H](CO)C(=O)N[C@@H](CCC(N)=O)C(=O)N[C@@H](CCCNC(=N)N)C(=O)N[C@@H](CCC(=O)O)C(=O)N[C@@H](CCCNC(=N)N)C(=O)N[C@@H](C)C(=O)N[C@@H](CCC(=O)O)C(=O)N[C@@H](CCC(N)=O)C(=O)N[C@@H](CC(N)=O)C(=O)N[C@@H](CCCNC(=N)N)C(=O)N[C@H](C(=O)N[C@H](C(=O)N[C@@H](Cc1ccccc1)C(=O)N[C@@H](CC(=O)O)C(=O)N[C@@H](CO)C(=O)N[C@H](C(N)=O)C(C)C)[C@@H](C)CC)[C@@H](C)CC)[C@@H](C)O)[C@@H](C)O)[C@@H](C)O` [SEQ ID NO: 114, DDPPLSIDLTFHLLRTLLELARTQSQRERAEQNRIIFDSV-NH2], the “Published pA50” value [4] is listed as 10.06^2.
